Values quoted from earlier work as cited in patent publication US6495562B1, “Naphthamidine urokinase inhibitors” (Abbott Laboratories, priority 2000, dated 2002).

Assays:
[1] = system: tumor metastasis; conditions: Anticancer Res. 1988, 8, 1373-1376
[2] = system: angiogenesis; conditions: J. Cell Biol. 1991, 115[3 Pt 2], 402a

N=C(N)NC(=O)c1nc(Cl)c(N)nc1N [Amiloride]
inhibition of tumor metastasis in vivo [1]: inhibit
inhibition of angiogenesis in vitro [2]: inhibit
